The source of these data is patent US6949573B2, “Nicotinamide derivatives useful as PDE4 inhibitors” (Pfizer Inc, priority 2002, dated 2005).

This assay deals with human peripheral blood mononuclear cells. In words: Inhibition of LPS-stimulated TNFα release from human peripheral blood mononuclear cells (TNFα screen). It is filed as cell-based. The following applies: LPS-stimulated human PBMC, 18 hours incubation, TNFα in supernatant by ELISA. On the procedure: Venous blood Is collected from healthy volunteers and the mononuclear cells purified by centrifugation through Histopaque (ficoll) cushions. TNFα production from these cells is stimulated by addition of lipopolysaccharide. After 18 hours incubation in the presence of LPS, the cell supernatant is removed and the concentration of TNFα in the supernatant determined by ELISA. Addition of PDE4 inhibitors reduces the amount of TNFα produced. An IC50 is determined which is equal to the concentration of compound that gives 50% inhibition of TNFα production as compared to the LPS stimulated control wells.
On the technique in general: In an ELISA, binding on a coated surface is turned into a signal by an enzyme label.

The term IC50 denotes the point on the concentration scale where inhibition reaches its midpoint. A lower IC50 goes with inhibition by little substance. Take `COC(=O)CCC(=O)NC1CCC(NC(=O)c2cc(F)cnc2Oc2ccc(F)cc2)CC1` (stereo not drawn) [Example 110, Syn-N-(4-{[5-fluoro-2-(4-fluoro-phenoxy)-pyridine-3-carbonyl]-amino}-cyclo-hexyl)-succinamic acid methyl ester]: it took 14 nM to reach half-maximal inhibition (IC50).
